Assay [1] has as its system NCI-H460. Nature of the assay: Cell cycle arrest in human NCI-H460 cells assessed as accumulation at sub-G1 phase after 1 hr by propidium iodide staining-based flow cytometric analysis. The format is functional. In general terms: Flow cytometry measures light scatter and fluorescence of single cells or particles in a stream.
Assay [2] has as its system NCI-H460. Description: Cell cycle arrest in human NCI-H460 cells assessed as accumulation at sub-G1 phase at 12.5 uM after 1 hr by propidium iodide staining-based flow cytometric analysis (reference value: 2.2%). The format is functional.
The subject of assay [3] is A549. Nature of the assay: Induction of apoptosis in human A549 cells assessed as PARP cleavage at 12.5 to 50 uM after 24 hrs by Western blot analysis. It is filed as functional, cell-based. For orientation: In western blotting, separated proteins are transferred to a membrane and probed.
For assay [4], the target named is Protein kinase C delta type (Homo sapiens) (UniProt Q05655). Description: Induction of PKC-delta phosphorylation in human NCI-H460 cells at 12.5 to 50 uM after 24 hrs by Western blot analysis. It is filed as cell-based.
The test system of assay [5] is NCI-H460. Description: Induction of apoptosis in human NCI-H460 cells assessed as caspase-3 cleavage at 50 uM after 24 hrs by Western blot analysis in presence of PKC promoter PMA, JNK inhibitor SP600125. It is filed as functional, cell-based.
Assay [6] deals with c-Jun N-terminal kinase, JNK (Homo sapiens) (UniProt P45983+P53779+P45984). Description: Induction of c-Jun N-terminal kinase phosphorylation in human NCI-H460 cells at 12.5 to 50 uM after 24 hrs by Western blot analysis. It is filed as cell-based.
The test system of assay [7] is NCI-H460. Description: Induction of apoptosis in human NCI-H460 cells assessed as activation of caspase 9/3 at 12.5 to 50 uM after 24 hrs by Western blot analysis. It is filed as functional, cell-based.
The subject of assay [8] is NCI-H460. Nature of the assay: Cytotoxicity against human NCI-H460 cells assessed as cell viability after 24 hrs by XTT assay. It is filed as functional, cell-based. Particulars: NCI-H460, 24 h. On the technique in general: Tetrazolium dyes change colour on reduction, which living cells bring about.
For assay [9], the system named is NCI-H460. Description: Inhibition of ERK phosphorylation in human NCI-H460 cells at 12.5 to 50 uM after 24 hrs by Western blot analysis. The format is cell-based.
The subject of assay [10] is NCI-H460. Description: Induction of apoptosis in human NCI-H460 cells assessed as downregulation of Bcl-xL protein expression at 12.5 to 50 uM after 24 hrs by Western blot analysis. The format is functional, cell-based.
Assay [11] relates to A549. Description: Cytotoxicity against human A549 cells assessed as cell viability after 24 hrs by XTT assay. The format is functional, cell-based. Particulars: A549, 24 h.
In assay [12] the test system is NCI-H460. Description: Induction of apoptosis in human NCI-H460 cells assessed as downregulation of Bcl-2 protein expression at 12.5 to 50 uM after 24 hrs by Western blot analysis. The format is functional, cell-based.
Assay [13] relates to NCI-H460. Nature of the assay: Induction of apoptosis in human NCI-H460 cells assessed as PARP cleavage at 50 uM after 24 hrs by Western blot analysis in presence of PKC promoter PMA, JNK inhibitor SP600125. The format is functional, cell-based.
The subject of assay [14] is NCI-H460. Description: Induction of apoptosis in human NCI-H460 cells assessed as downregulation of cyclin D1 protein expression at 12.5 to 50 uM after 24 hrs by Western blot analysis. The format is functional, cell-based.
The subject of assay [15] is NCI-H460. Nature of the assay: Induction of apoptosis in human NCI-H460 cells assessed as DNA fragmentation after 24 hrs by DAPI staining-based TUNEL assay. It is filed as functional, cell-based.
The subject of assay [16] is A549. Nature of the assay: Cell cycle arrest in human A549 cells assessed as accumulation at sub-G1 phase at 50 uM after 1 hr by propidium iodide staining-based flow cytometric analysis. The format is functional.
Assay [17] deals with T1, PKC alpha and beta-2 (Homo sapiens) (UniProt P17252+P05771). Description: Inhibition of PKC alpha/beta-2 phosphorylation in human NCI-H460 cells at 12.5 to 50 uM after 24 hrs by Western blot analysis. The format is cell-based.
The test system of assay [18] is NCI-H460. Description: Induction of apoptosis in human NCI-H460 cells assessed as PARP cleavage at 12.5 to 50 uM after 24 hrs by Western blot analysis. The format is functional, cell-based.
For assay [19], the system named is NCI-H460. Nature of the assay: Cell cycle arrest in human NCI-H460 cells assessed as accumulation at sub-G1 phase at 50 uM after 24 hrs by propidium iodide staining-based flow cytometric analysis in presence of PKC promoter PMA, JNK inhibitor SP600125. It is filed as functional.
The test system of assay [20] is NCI-H460. Nature of the assay: Cell cycle arrest in human NCI-H460 cells assessed as accumulation at sub-G1 phase at 50 uM after 1 hr by propidium iodide staining-based flow cytometric analysis (reference value: 2.2%). It is filed as functional.
Assay [21] concerns the target T1, PKC alpha and beta-2 (Homo sapiens). Description: Inhibition of PKC alpha/beta-2 phosphorylation in human NCI-H460 cells at 50 uM after 24 hrs by Western blot analysis in presence of PKC promoter PMA, JNK inhibitor SP600125. The format is cell-based.
For assay [22], the system named is NCI-H460. Description: Induction of apoptosis in human NCI-H460 cells assessed as downregulation of cyclin E protein expression at 12.5 to 50 uM after 24 hrs by Western blot analysis. The format is functional, cell-based.

In ChEMBL document CHEMBL3112498, “Inhibition of protein kinase C α/βII and activation of c-Jun NH2-terminal kinase mediate glycyrrhetinic acid induced apoptosis in non-small cell lung cancer NCI-H460 cells” (Bioorg Med Chem Lett, 2014) one finds Activity, IC50 and inhibition data, which are given here for one molecule.

≈ marks a conversion by molar mass, not a printed value. Calls of active or inactive are those of the source. No cut-off for these calls is given here.

T1 sequence (P05771 whole entry, looked up): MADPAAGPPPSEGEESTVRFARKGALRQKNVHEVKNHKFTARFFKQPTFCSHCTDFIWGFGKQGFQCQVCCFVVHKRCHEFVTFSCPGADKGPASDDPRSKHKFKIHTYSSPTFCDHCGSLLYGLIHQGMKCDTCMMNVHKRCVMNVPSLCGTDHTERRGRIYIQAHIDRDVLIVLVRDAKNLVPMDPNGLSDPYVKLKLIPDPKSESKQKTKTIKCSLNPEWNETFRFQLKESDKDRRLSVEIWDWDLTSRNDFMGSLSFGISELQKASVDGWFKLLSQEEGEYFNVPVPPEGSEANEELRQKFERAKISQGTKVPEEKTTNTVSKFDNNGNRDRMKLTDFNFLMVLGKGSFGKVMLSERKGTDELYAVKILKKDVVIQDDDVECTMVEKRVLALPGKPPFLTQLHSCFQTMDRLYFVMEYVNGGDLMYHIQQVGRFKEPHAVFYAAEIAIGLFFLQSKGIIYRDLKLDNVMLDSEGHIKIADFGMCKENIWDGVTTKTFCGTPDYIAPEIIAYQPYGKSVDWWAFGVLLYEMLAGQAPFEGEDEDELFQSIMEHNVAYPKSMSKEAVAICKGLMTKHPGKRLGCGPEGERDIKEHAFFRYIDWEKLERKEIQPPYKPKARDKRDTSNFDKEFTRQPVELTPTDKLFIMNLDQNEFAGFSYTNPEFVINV
Protein kinase C delta type (Homo sapiens), sequence (Q05655 whole entry, looked up): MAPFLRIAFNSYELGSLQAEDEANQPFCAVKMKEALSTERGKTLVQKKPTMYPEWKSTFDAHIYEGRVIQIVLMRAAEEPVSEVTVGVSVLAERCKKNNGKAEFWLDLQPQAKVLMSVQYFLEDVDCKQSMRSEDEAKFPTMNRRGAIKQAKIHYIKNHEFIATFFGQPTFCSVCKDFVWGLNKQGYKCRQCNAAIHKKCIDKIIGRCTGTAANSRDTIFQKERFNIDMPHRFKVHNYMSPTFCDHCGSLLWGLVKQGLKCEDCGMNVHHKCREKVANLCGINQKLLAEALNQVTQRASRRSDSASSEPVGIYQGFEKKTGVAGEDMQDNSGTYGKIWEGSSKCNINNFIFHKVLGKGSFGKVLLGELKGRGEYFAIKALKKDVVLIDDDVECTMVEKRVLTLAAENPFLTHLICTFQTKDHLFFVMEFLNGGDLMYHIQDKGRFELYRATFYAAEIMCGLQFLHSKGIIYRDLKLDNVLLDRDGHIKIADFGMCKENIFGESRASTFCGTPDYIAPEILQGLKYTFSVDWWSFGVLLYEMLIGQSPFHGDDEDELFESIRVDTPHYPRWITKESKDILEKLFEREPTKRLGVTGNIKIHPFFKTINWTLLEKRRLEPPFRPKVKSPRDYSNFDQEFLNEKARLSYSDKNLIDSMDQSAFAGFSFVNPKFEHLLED

The IC50 is the concentration needed to halve the response being measured. As to `CC1(C)[C@@H](O)CC[C@]2(C)[C@H]3C(=O)C=C4[C@@H]5C[C@@](C)(C(=O)O)CC[C@]5(C)CC[C@@]4(C)[C@]3(C)CC[C@@H]12` [ENOXOLONE], the Activity result with NCI-H460 [1] is “Dose-dependent effect”; in the assay on NCI-H460 [2], 2.8%; in the assay on NCI-H460 [15], “Dose-dependent effect”; in the assay on NCI-H460 [20], 40.1%. Moreover, the result (with A549 [3]; in assay [4]; in assay [6]; in the assay on NCI-H460 [7]; in the assay on NCI-H460 [10]; in the assay with NCI-H460 [12]) was Active. Also, the result in the assay on NCI-H460 [14], with A549 [16], in the assay with NCI-H460 [18] and in the assay on NCI-H460 [22] was Active. Besides, the outcome in the assay with NCI-H460 [5], with NCI-H460 [13] and in the assay on NCI-H460 [19] was inactive. Moreover, the IC50 in the assay with NCI-H460 [8] was 62 µg/mL (≈ 132 µM); with A549 [11], 78 µg/mL (≈ 166 µM). Also, the inhibition result (in the assay with NCI-H460 [9]; in [17]) was “Active” in each case. Also, the inhibition entry in assay [21] is “inactive”.
